A short description of data set [1]: Acute toxicity, oral, mice. To be noted: in vivo, mouse p.o.
The subject of data set [2] is acetic acid ulcers in rats. The data set is described as follows: Anti-ulcerous effect on acetic acid-induced experimental gastric ulcers in rats (oral for 13 days from the day after ulceration), Table I. Type of data set: in vivo, Donryu-strain male rats. The settings on record: relative to glutamine. An excerpt: The anti-ulcerous effects of the object compounds of this invention have been confirmed in tests on ulcers in rats. The ulcers were produced according to the method of K. Takagi, S. Okabe and R. Saziki, by the effect of acetic acid on the digestive organs (Japanese Journal of Pharmacology vol. 19 pages 418-426 (1969), Yakkyoku vol. 25 pages 1453-1459 (1974) and Experientia vol. 27 pages 146-148 (1971). It is known that this experimental ulcer resembles human peptic ulcers with respect to the overall and histological findings and as to the recovery process. The experimental details confirming the anti-ulcerous effect are as follows.
Donryu-strain male rats having a body weight -- 230-270g (ten rats to a group) were not fed for 24 hours and then were anesthesized with ether. A laparotomy was performed. The stomach was exposed and 0.05 ml of 10% acetic acid was injected into the subserosal layer in the glandular part of the anterior wall to produce the experimental ulcers. The abdomen was then closed. Beginning on the day after the ulceration, the compounds of this invention were orally administered to the rats for 13 days. The rats were fed normally and sacrificed on the 15th day after the ulcer formation. The size of the ulcer (length and width) in the glandular part of the stomach was measured and the product of the length and width was used as the ulcer index (UI). The curative ratio (%) was calculated from the ulcer index of the rats which were medicated as compared with the index of the control group. [formula]
For the purpose of comparing the effects with those of known drugs, the therapeutic effects of the compounds of this invention, tyrosine itself and gefarnate relative to those of glutamine were calculated and are listed in Table I. Of these compounds, gefarnate (geranyl farnesylacetate,U.S. Pat. No. 3,154,570 (1964) and glutamine are known anti-ulcerous drugs.

In data set [3] the test system is chronic acetic acid ulcers in rats. The data set is described as follows: Anti-ulcerous effect on chronic acetic acid ulcers in rats (oral, 41st to 54th day after ulceration), Table II. Type of data set: in vivo. The settings on record: 14 days, relative to glutamine. On the procedure:
Donryu-strain male rats having a body weight -- 230-270g (ten rats to a group) were not fed for 24 hours and then were anesthesized with ether. A laparotomy was performed. The stomach was exposed and 0.05 ml of 10% acetic acid was injected into the subserosal layer in the glandular part of the anterior wall to produce the experimental ulcers. The abdomen was then closed. […] […] The size of the ulcer (length and width) in the glandular part of the stomach was measured and the product of the length and width was used as the ulcer index (UI). The curative ratio (%) was calculated from the ulcer index of the rats which were medicated as compared with the index of the control group. [formula] Acetic acid ulcers in rats are known to undergo partial healing and re-ulceration so that these ulcers resemble human chronic ulcers, both histologically and functionally. In order to examine the anti-ulcerous effects on chronic ulcers, the compounds of this invention were orally administered to rats for 14 days, from the 41st day to the 54th day after ulceration with acetic acid. On the 55th day, the rats were sacrificed and the size of the ulcer was measured. The procedure used in ulceration and in the determination of effects are the same as those described hereinbefore.

Peptide text beside a SMILES is read from it. * marks the point of attachment. Bz = O=C(c1ccccc1)*

Regarding `COc1ccc(C(=O)N[C@H](CO)Cc2ccc(O)cc2)cc1`, the median lethal dose (LD50) in data set [1] was more than 4000 mg/kg. Moreover, the Relative therapeutic effect in data set [2] (200 mg/kg/day) came to 1.76. Consider `COc1ccccc1C(=O)N[C@H](CO)Cc1ccc(O)cc1`, for which the Relative therapeutic effect in data set [2] (200 mg/kg/day) amounted to 1.29. In data set [1], `COc1cc(C(=O)N[C@H](CO)Cc2ccc(O)cc2)cc(OC)c1OC` returned a median lethal dose (LD50) of more than 4000 mg/kg. In data set [2] (200 mg/kg/day), this compound returned a Relative therapeutic effect of 1.43. Compound `Nc1ccc(C(=O)N[C@H](CO)Cc2ccc(O)cc2)cc1` returned a Relative therapeutic effect in data set [2] (200 mg/kg/day) of 1.24. As for `Cc1ccc(COC(=O)N[C@H](CO)Cc2ccc(O)cc2)cc1`, the LD50 in data set [1] is more than 4000 mg/kg. This compound yielded a Relative therapeutic effect in data set [2] (200 mg/kg/day) of 1.81. `O=C(N[C@H](CO)Cc1ccc(O)cc1)OCc1ccc(F)cc1`: the Relative therapeutic effect in data set [2] (200 mg/kg/day) came to 1.14. `O=C(N[C@H](CO)Cc1ccc(O)cc1)OCc1ccc(Cl)cc1` gave a Relative therapeutic effect in data set [2] (200 mg/kg/day) of 0.81. `O=C(N[C@H](CO)Cc1ccc(O)cc1)OCC1CCCCC1` displayed a Relative therapeutic effect in data set [2] (200 mg/kg/day) of 1.60. Take `COc1ccc(C(=O)N[C@@H](Cc2ccccc2)C(=O)N[C@@H](Cc2ccc(O)cc2)C(=O)O)cc1` [Compound (II) R3 =CH3 O, N-(4-methoxybenzoyl)-phenylalanyltyrosine]: the LD50 in data set [1] is more than 4000 mg/kg. The Relative therapeutic effect in data set [3] (50 mg/kg/day) was determined as 7.85.

For `O=C(N[C@@H](Cc1ccccc1)C(=O)N[C@@H](Cc1ccc(O)cc1)C(=O)O)c1ccccc1` [Compound (II) R3 =H, N-benzoylphenylalanyltyrosine] (Bz-Phe-Tyr-OH), the LD50 in data set [1] was more than 4000 mg/kg. In data set [2] (200 mg/kg/day), the Relative therapeutic effect is given as 1.19. For `CC(C)=CCCC(C)=CCCC(C)=CCCC(=O)OC/C=C(\C)CCC=C(C)C` [Gefarnate, geranyl farnesylacetate, reference compound], the Relative therapeutic effect in data set [2] (200 mg/kg/day) came to 1.06; in data set [3] (200 mg/kg/day) it was 0.77. Take `NC(=O)CC[C@H](N)C(=O)O` [Glutamine, glutamine, reference compound]: the Relative therapeutic effect in data set [2] (200 mg/kg/day) was 0.30; in data set [2] (1000 mg/kg/day), 1.00; in data set [3] (1000 mg/kg/day) it was 1.00. In data set [1], `COC(Cc1ccccc1)C(=O)N[C@H](CO)Cc1ccc(O)cc1` (stereo partly drawn) [N-(α -methoxy-β-phenylpropionyl)-tyrosinol] displayed a 50% lethal dose (LD50) of more than 4000 mg/kg. For the compound `COc1ccc(C[C@@H](CO)NC(=O)OCc2ccc(OC)c(OC)c2)cc1` [O-methyl-N-(3,4-dimethoxybenzyloxycarbonyl)-tyrosinol], in data set [1], the LD50 was more than 4000 mg/kg. Besides, the Relative therapeutic effect in data set [2] (200 mg/kg/day) amounted to 0.98.

In data set [1], `COc1ccc(C[C@@H](CO)NC(=O)OCc2ccccc2)cc1` [O-methyl-N-benzyloxycarbonyltyrosinol] yielded a median lethal dose (LD50) of more than 4000 mg/kg. Also, the Relative therapeutic effect in data set [2] (200 mg/kg/day) came to 1.03. In the case of `N[C@@H](Cc1ccc(O)cc1)C(=O)O` [Tyrosine, tyrosine], the Relative therapeutic effect in data set [2] (200 mg/kg/day) came out at 0.37.

In the case of `COc1ccc(COC(=O)N[C@H](CO)Cc2ccc(O)cc2)cc1` [drawing 11], in data set [1], the LD50 is more than 4000 mg/kg. The compound further displayed a Relative therapeutic effect in data set [2] (200 mg/kg/day) of 1.75.

The compound `COc1ccc(COC(=O)N[C@H](CO)Cc2ccc(O)cc2)cc1` [drawing 17] came in with a Relative therapeutic effect in data set [3] (50 mg/kg/day) of 7.72.

As usually defined, the LD50 is the dose expected to kill half of the subjects tested. Low readings indicate greater toxicity, high ones lower toxicity.
